Reference: patent publication US9029378B2, “Substituted bicyclic aromatic carboxamide and urea compounds as vanilloid receptor ligands” (Gruenenthal GmbH, priority 2011, dated 2015)

molecular target: T1, vanilloid receptor 1 (VR1/TRPV1 receptor) (Homo sapiens, UniProt Q8NER1); assay: Functional testing on the vanilloid receptor 1 (FLIPR Ca2+ influx assay, capsaicin); type: cell-based, human being; conditions: @0.1 μM; Cap=capsaicin; read-out: inhibition (as a percentage), (f) (human being) Cap
T1 construct: expressed in transfected cells; host or cells: CHO K1
T1 sequence (Q8NER1 whole entry): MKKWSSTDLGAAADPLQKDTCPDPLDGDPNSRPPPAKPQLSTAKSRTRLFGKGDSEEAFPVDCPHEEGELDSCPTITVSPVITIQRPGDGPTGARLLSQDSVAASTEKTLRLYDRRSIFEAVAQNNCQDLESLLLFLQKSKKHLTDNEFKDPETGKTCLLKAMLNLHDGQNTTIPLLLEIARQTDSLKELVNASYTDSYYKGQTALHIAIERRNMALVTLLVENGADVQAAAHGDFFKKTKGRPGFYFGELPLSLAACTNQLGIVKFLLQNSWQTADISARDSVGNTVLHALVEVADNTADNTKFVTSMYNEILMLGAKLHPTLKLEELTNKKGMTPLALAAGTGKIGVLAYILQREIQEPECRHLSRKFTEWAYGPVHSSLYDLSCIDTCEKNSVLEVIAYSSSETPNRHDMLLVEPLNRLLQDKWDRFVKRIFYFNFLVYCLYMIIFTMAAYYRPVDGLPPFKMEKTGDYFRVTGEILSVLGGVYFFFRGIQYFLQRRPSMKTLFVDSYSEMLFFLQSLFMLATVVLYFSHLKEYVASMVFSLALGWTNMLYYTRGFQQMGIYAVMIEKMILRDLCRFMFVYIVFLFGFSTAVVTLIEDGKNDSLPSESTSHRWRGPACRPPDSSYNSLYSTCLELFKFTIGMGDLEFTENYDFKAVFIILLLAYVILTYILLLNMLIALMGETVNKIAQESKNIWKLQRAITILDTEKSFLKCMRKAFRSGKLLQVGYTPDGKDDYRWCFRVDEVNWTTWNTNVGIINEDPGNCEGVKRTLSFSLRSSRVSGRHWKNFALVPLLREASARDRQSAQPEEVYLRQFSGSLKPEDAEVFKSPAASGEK
Procedure: Furthermore, preference may be given to compounds according to the invention that cause a 50 percent displacement of capsaicin, which is present at a concentration of 100 nM, in a FLIPR assay with CHO K1 cells which were transfected with the human VR1 gene at a concentration of less than 2,000 nM, preferably less than 1,000 nM, particularly preferably less than 300 nM, most particularly preferably less than 100 nM, even more preferably less than 75 nM, additionally preferably less than 50 nM, most preferably less than 10 nM.
In the process, the Ca^2+ influx is quantified in the FLIPR assay with the aid of a Ca^2+-sensitive dye (type Fluo-4, Molecular Probes Europe BV, Leiden, the Netherlands) in a fluorescent imaging plate reader (FLIPR, Molecular Devices, Sunnyvale, USA), as described hereinafter.
Pharmacological Methods I. Functional Testing Carried Out on the Vanilloid Receptor 1 (VR1/TRPV1 Receptor) […]
The number of cells in the suspension is set to 3×10^5 per mL and 150 μL of this suspension are in each case introduced into a recess in the cell culture plates coated as described hereinbefore. In the incubator the plates are left for two to three days at 37° C., 5% by volume of CO2 and 95% relative humidity. Subsequently, the cells are loaded with 2 μM of Fluo-4 and 0.01% by volume of Pluronic F127 (Molecular Probes Europe BV, Leiden, the Netherlands) in HBSS buffer (Hank's buffered saline solution, Gibco Invitrogen GmbH, Karlsruhe, Germany) for 30 min at 37° C., washed 3 times with HBSS buffer and after further incubation for 15 minutes at room temperature used for Ca^2+ measurement in a FLIPR assay. The Ca^2+-dependent fluorescence is in this case measured before and after the addition of substances (λex=488 nm, λem=540 nm). Quantification is carried out by measuring the highest fluorescence intensity (FC, fluorescence counts) over time.
The FLIPR protocol consists of 2 substance additions. First the compounds to be tested (10 μM) are pipetted onto the cells and the Ca^2+ influx is compared with the control (capsaicin 10 μM). This provides the result in % activation based on the Ca^2+ signal after the addition of 10 μM of capsaicin (CP). After 5 minutes' incubation, 100 nM of capsaicin are applied and the Ca^2+ influx is also determined.
Desensitising agonists and antagonists lead to suppression of the Ca^2+ influx. The % inhibition is calculated compared to the maximum achievable inhibition with 10 μM of capsazepine. Triple analyses (n=3) are carried out and repeated in at least 3 independent experiments (N=4). Starting from the percentage displacement caused by different concentrations of the compounds to be tested of general formula I, IC50 inhibitory concentrations which cause a 50-percent displacement of capsaicin were calculated. Ki values for the test substances were obtained by conversion by means of the Cheng-Prusoff equation (Cheng, Prusoff; Biochem. Pharmacol. 22, 3099-3108, 1973).
The affinity of the compounds of to the invention for the vanilloid receptor 1 (VR1/TRPV1 receptor) was determined as described hereinbefore (pharmacological method I). The compounds of the invention display outstanding affinity to the VR1/TRPV1 receptor (Table 2). In Table 2 the abbreviations below have the following meanings: • Cap=capsaicin • AG=agonist • NE=no effect
The value after the “@” symbol indicates the concentration at which the inhibition (as a percentage) was respectively determined.

Molecule | inhibition at 0.1 µM [%]
CC1CCN(c2nc(C(F)(F)F)ccc2CNC(=O)Nc2cccc3cc[nH]c23)CC1 [Example 36, 1-(1H-Indol-7-yl)-3-((2-(4-methylpiperidin-1-yl)-6-(trifluoromethyl)pyridin-3-yl)methyl)urea] | 37

same assay, conditions: Cap=capsaicin (100 nM); Ki from IC50 by Cheng-Prusoff equation; read-out: (f) Ki (human being) [nM] Cap

Molecule | Ki [nM]
Cc1cc2cc(NC(=O)NCc3ccc(C(F)(F)F)nc3N3CCC(C)CC3)ccc2[nH]1 [Example 24, 1-(2-Methyl-1H-indol-5-yl)-3-((2-(4-methylpiperidin-1-yl)-6-(trifluoromethyl)pyridin-3-yl)methyl)urea] | 26
CC1CCN(c2nc(C(F)(F)F)ccc2CNC(=O)C(C)c2cnc3ccccc3c2)CC1 (centres unmarked) [Example 14, N-((2-(4-Methylpiperidin-1-yl)-6-(trifluoromethyl)pyridin-3-yl)methyl)-2-(quinolin-3-yl)propanamide] | 44
CC1CCN(c2nc(C(F)(F)F)ccc2CNC(=O)Nc2cccc3c(Cl)nccc23)CC1 [Example 79, 1-(1-Chloroisoquinolin-5-yl)-3-((2-(4-methylpiperidin-1-yl)-6-(trifluoromethyl)pyridin-3-yl)methyl)urea] | 0.8
CC1CCN(c2nc(C(F)(F)F)ccc2CNC(=O)Nc2cccc3c2cnn3C)CC1 [Example 46, 1-(1-Methyl-1H-indazol-4-yl)-3-((2-(4-methylpiperidin-1-yl)-6-(trifluoromethyl)pyridin-3-yl)methyl)urea] | 0.5
CC1CCN(c2nc(C(F)(F)F)ccc2CNC(=O)Nc2cnc3[nH]ncc3c2)CC1 [Example 5, 1-((2-(4-methylpiperidin-1-yl)-6-(trifluoromethyl)pyridin-3-yl)methyl)-3-(1H-pyrazolo[3,4-b]pyridin-5-yl)urea] | 21
Cc1nc2cc(NC(=O)NCc3ccc(C(F)(F)F)nc3N3CCC(C)CC3)ccc2s1 [Example 30, 1-(2-Methylbenzo[d]thiazol-5-yl)-3-((2-(4-methylpiperidin-1-yl)-6-(trifluoromethyl)pyridin-3-yl)methyl)urea] | 22
Cc1nccc2c(NC(=O)NCc3ccc(C(F)(F)F)nc3N3CCC(C)CC3)cccc12 [Example 78, 1-(1-Methylisoquinolin-5-yl)-3-((2-(4-methylpiperidin-1-yl)-6-(trifluoromethyl)pyridin-3-yl)methyl)urea] | 1
CC1CCN(c2nc(C(F)(F)F)ccc2CNC(=O)Nc2cc(Cl)cc3[nH]ncc23)CC1 [Example 55, 1-(6-Chloro-1H-indazol-4-yl)-3-((2-(4-methylpiperidin-1-yl)-6-(trifluoromethyl)pyridin-3-yl)methyl)urea] | 4
Cc1cc2cccc(NC(=O)NCc3ccc(C(F)(F)F)nc3N3CCC(C)CC3)c2cn1 [Example 87, 1-(3-Methylisoquinolin-8-yl)-3-((2-(4-methylpiperidin-1-yl)-6-(trifluoromethyl)pyridin-3-yl)methyl)urea] | 15
CC1CCN(c2nc(C(F)(F)F)ccc2CNC(=O)Nc2cccc3c2ccn3S(C)(=O)=O)CC1 [Example 42, 1-((2-(4-Methylpiperidin-1-yl)-6-(trifluoromethyl)pyridin-3-yl)methyl)-3-(1-(methylsulfonyl)-1H-indol-4-yl)urea] | 2
N-(2-(4-Methylpiperidin-1-yl)-4-(trifluoromethyl)benzyl)-2-(quinolin-3-yl)propanamide [Example 16] | 10
CN(C)C1(c2ccccc2)CCN(c2nc(C(F)(F)F)ccc2CNC(=O)Nc2cccc3[nH]ccc23)CC1 [Example 39, 1-((2-(4-(Dimethylamino)-4-phenylpiperidin-1-yl)-6-(trifluoromethyl)pyridin-3-yl)methyl)-3-(1H-indol-4-yl)urea] | 8
CC1CCN(c2nc(C(F)(F)F)ccc2CNC(=O)Nc2ccc3scnc3c2)CC1 [Example 29, 1-(Benzo[d]thiazol-5-yl)-3-((2-(4-methylpiperidin-1-yl)-6-(trifluoromethyl)pyridin-3-yl)methyl)urea] | 5
